This is an account of results in patent publication US20230158025A1 (UNIVERSITY OF UTAH RESEARCH FOUNDATION, priority 2020, published 2023).

Each structure is given as a SMILES string. Where two headings read alike, the source gives them in different places. Some results are limits rather than exact numbers.

Data set [1] addresses T1, hGALK1m (Homo sapiens, UniProt P51570, E253A/K252A).
T1 construct: made in house; host or cells: E. coli HMS174
In words: in vitro hGALK1 activity assay of the structure-based optimisation (Example 12, Tables 17-20). Format: biochemical.

For data set [2] the following is noted: rat.
Data set [3] can be described thus: in vitro. The settings on record: rat, microsomes.
Data set [4] has as its target recombinant human GALK1 (Homo sapiens, UniProt P51570). Put plainly: hGALK1 biochemical activity assay (Kinase-Glo Plus, ATP depletion). In outline:
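Recombinant human or mouse GALK1 (5 nM, with 100 μM galactose, in the added enzyme solution) was run with ATP (35 μM in the substrate solution) in HEPES pH 8.0 buffer. Compounds were tested at 11 1/3-step concentrations from 57.4 μM to 0.97 nM. After 1 h at room temperature, remaining ATP was read by Kinase-Glo Plus luminescence.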

A short description of data set [5]: in vitro. To be noted: PAMPA, ADME P: PAMPA permeability (class).
For data set [6] the following is noted: PAMPA.
Data set [7] has as its target recombinant mouse GALK1 (Mus musculus, UniProt Q9R0N0). In words: mGALK1 biochemical activity assay (Kinase-Glo Plus, ATP depletion). In outline: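 Recombinant GALK1 (5 nM) with 100 μM galactose; GALK1 turnover read as ATP depletion by Kinase-Glo Plus luminescence. Reaction ran 1 h at room temperature before detection reagent was added.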
The nature of data set [8]: PAMPA permeability.
Data set [9] can be described thus: mouse liver microsome stability (MLM). Format: in vitro ADME. To be noted: GALK lead profile.
Data set [10] concerns skin fibroblasts derived from GALT-deficient patients. In words: Gal-1-p accumulation assay in patient fibroblasts. In kind it is cell-based, human. How it is done: Skin fibroblasts derived from GALT-deficient patients were maintained in galactose-free culture medium supplemented with 10% hexose-free fetal bovine serum (FBS). Before galactose challenge, inhibitors were added to the medium at designated concentrations and incubated at 37° C. for 4 hr. Then, galactose was added to reach 0.05% in the medium. After 4 hr of challenge, cells were collected and washed twice with PBS. Then, the cells were disrupted in 300 μL of ice-cold hypotonic buffer containing 25 mM Tris-HCl (pH 7.4), 25 mM NaCl, 0.5 mM EDTA, and protease inhibitor cocktail (Roche). The lysates were passed five times through a 30-gauge needle and centrifuged for 20 min at 16,000×g and 4° C. A small portion of supernatant was saved for protein concentration measurement. Gal-1-p level was measured using the alkaline phosphatase coupled method previously described. The gal-1-p concentration was normalized to protein concentration. The assay was analyzed using the paired t-test to determine the statistical difference between the compound treated cells and corresponding DMSO control. The two-sided p value less than 0.05 was considered statistically significant.
For measurement of cellular Gal-1P reduction, compounds at different concentrations were added to cultured patient fibroblast at 80% confluency. After incubating the compounds for 16 hours, 10 mM galactose was added to the culture. After another 4-hours, cells were washed with cold PBS buffer 3× and harvested for gal-1P measurement, according to previously published method. Liu et al., Bioorg. Med. Chem. Lett. 25(3): 721-727 (2015).
The in vitro hGALK1 activity assay was performed as previously described. Liu et al., Bioorg. Med. Chem. Lett. 25(3): 721-727 (2015). For the measurement of cellular Gal-1P reduction, compounds at different concentrations were added to cultured patient fibroblast at 80% confluency. After incubating the compounds for 16 hours, 10 mM galactose was added to the culture. […]

The nature of data set [11]: aqueous kinetic solubility. To be noted: aqueous kinetic solubility.
Data set [12] can be described thus: rat microsomal stability (RLM).
A short description of data set [13]: human liver microsome stability (HLM). The settings on record: GALK lead profile. Format: in vitro ADME.
[14] abbreviates: recombinant human GALK1, Kinase-Glo Plus ATP depletion, read-out: hGALK.
Setting [15] is: recombinant mouse GALK1, Kinase-Glo Plus ATP depletion, read-out: mGALK.

recombinant mouse GALK1, sequence (Q9R0N0 whole entry): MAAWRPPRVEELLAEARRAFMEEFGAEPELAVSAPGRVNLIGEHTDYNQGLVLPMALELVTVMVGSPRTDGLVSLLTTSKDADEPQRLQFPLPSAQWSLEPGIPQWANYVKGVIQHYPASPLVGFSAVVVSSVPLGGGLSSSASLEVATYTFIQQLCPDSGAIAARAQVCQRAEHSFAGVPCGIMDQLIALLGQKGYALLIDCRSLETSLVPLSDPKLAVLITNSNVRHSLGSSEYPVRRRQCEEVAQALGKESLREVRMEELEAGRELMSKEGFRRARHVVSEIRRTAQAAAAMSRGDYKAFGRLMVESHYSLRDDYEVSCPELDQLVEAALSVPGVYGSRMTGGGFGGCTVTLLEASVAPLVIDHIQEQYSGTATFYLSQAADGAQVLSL
recombinant human GALK1, sequence (P51570 whole entry): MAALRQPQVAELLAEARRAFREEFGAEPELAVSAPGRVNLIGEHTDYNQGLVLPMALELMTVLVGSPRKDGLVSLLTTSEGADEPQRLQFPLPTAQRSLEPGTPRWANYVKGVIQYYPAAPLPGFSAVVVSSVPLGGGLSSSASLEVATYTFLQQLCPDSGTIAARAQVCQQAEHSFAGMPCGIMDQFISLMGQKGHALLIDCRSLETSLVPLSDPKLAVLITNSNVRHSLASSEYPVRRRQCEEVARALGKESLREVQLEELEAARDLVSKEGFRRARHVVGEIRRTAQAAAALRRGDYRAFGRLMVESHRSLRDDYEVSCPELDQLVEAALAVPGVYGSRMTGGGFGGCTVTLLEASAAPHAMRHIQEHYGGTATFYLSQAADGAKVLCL
T1 sequence (P51570 whole entry K252A/E253A): as the sequence (P51570 whole entry) above, with K252A, E253A counted along it

Take `CC1=C(C(=O)Nc2cc(C(=O)O)ccn2)C(c2ccccc2Cl)N=C(Nc2nc3cc(Cl)ccc3o2)N1` (stereo not drawn) [Compound 9, 2-(2-((5-chlorobenzo[d]oxazol-2-yl)amino)-4-(2-chlorophenyl)-6-methyl-1,4-dihydropyrimidine-5-carboxamido)isonicotinic acid]: the Emax in data set [1] (Tables 18-19, read-out: Max Response (%)) is 100%. Moreover, the IC50 worked out at 1700 nM in [1] (Tables 18-19 and text of Example 12); 2430 nM in [4] (setting [14]); 6110 nM in data set [7] (Tables 2-15, 35 μM ATP, 100 μM galactose, 1 h, bracketed figure after some values is undefined and not reported, read-out: mGALK IC50); 6110 nM in data set [7] (setting [15]). Also, in data set [2], the “Metab. Stabil. (m)” value is over 30 m. In addition, the half-life in data set [3] is under 10 min. Further, the Papp in data set [5] was under 10 ×10⁻⁶ cm/s. For the same molecule, the “Perm. (1 × 10^−6 cm/sec)” value in data set [6] was <1 1 × 10^−6 cm/sec.

Turning to `CC1=C(C(=O)NCc2cnn(C)c2)C(c2ccc(C)cc2Cl)N=C(Nc2nc3ccc(F)c(N)c3o2)N1` (stereo not drawn) [Compound 126, 2-((7-amino-6-fluorobenzo[d]oxazol-2-yl)amino)-4-(2-chloro-4-methylphenyl)-6-methyl-N-((1-methyl-1H-pyrazol-4-yl)methyl)-1,4-dihydropyrimidine-5-carboxamide], in data set [8] (GALK lead profile, two values given), the PAMPA is 485 10^−6 cm/s. For the same molecule, the “Perm. (1 × 10^−6 cm/sec)” value in [8] (PAMPA) is given as 459.1 1 × 10^−6 cm/sec. Moreover, the Papp in data set [8] (PAMPA, GALK lead profile, two values given) was 390 ×10⁻⁶ cm/s. Also, the MLM t in data set [9] is on record as 13 min. Moreover, the IC50 in data set [1] (Tables 18-20 and text of Example 12) stood at 14 nM; in data set [4] (Tables 2-15, 35 μM ATP, 100 μM galactose, 1 h, bracketed figure after some values (e.g. −1.2) is undefined and not reported, read-out: hGALK IC50), 50 nM; in data set [4] (setting [14]) it was 50 nM; in [7] (setting [15]), 690 nM. In addition, the “effect on Gal-1P accumulation (FIG. 5A)” value in data set [10] (CG patient fibroblasts) is listed as “inhibited Gal-1P accumulation”. For the same molecule, the “change of Gal-1P inhibition with concentration (FIG. 5B)” value in data set [10] (concentration increased from 0.5 μM to 1 μM) is recorded as “significantly greater inhibition of Gal-1P accumulation”; in data set [10] (concentration increased from 1 μM to 3 μM), “did not increase significantly”. In data set [11], the “Sol.” value was 1.27 µg/mL. In data set [12] (GALK lead profile), this molecule registered an RLM t of 16 min. The “Metab. Stabil. (m)” value in [12] (microsomal stability half-life) is reported as 17.1 m. Also, in data set [13], the HLM t is 47 min.
